Measurements published in US10981902B2 (Merck Sharp & Dohme Corp., priority 2017, dated 2021).

Target: T1, human M4 muscarinic acetylcholine receptor (Homo sapiens, UniProt P08173)
T1 construct: expressed in transfected cells; host or cells: CHO-K1
T1 sequence (P08173 1-479): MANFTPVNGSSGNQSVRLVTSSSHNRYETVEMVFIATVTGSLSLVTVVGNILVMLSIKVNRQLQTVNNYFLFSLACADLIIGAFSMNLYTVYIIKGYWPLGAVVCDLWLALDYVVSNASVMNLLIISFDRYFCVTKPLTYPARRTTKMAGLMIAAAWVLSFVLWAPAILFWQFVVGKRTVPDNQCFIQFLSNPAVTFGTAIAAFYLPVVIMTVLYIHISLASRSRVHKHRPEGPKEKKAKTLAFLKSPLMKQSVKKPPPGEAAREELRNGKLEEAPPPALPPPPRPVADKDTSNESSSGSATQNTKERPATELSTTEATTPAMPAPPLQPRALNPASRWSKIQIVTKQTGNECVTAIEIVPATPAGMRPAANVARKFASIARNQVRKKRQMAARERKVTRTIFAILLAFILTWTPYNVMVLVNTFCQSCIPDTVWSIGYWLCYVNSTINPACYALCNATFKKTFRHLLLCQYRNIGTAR
Experiment: human FLIPR-based M4 PAM assay (calcium mobilization, CHO-K1 cells with human M4 receptor and Gαqi5)
Type: cell-based
Conditions: inflection point (IP) of dose response curve, acetylcholine added at 20% of maximum response, read-out: M4 FLIPPR Hu IP
Procedure: In a typical experiment the M4 muscarinic acetylcholine receptor modulating activity of the compounds of the present invention was determined in accordance with the following experimental method. CHO-K1 cells stably transfected with human M4 receptor and chimeric G-protein Gαqi5 (Coward P, et al., Analytical Biochemistry, 270:242-248 (1999)) are thawed from liquid N2 storage, resuspended in growth medium, plated in black, clear bottom 384 well plates, and incubated 16-20 hours at 37° C., 5% CO2. On the day of assay, growth medium is removed, the cells are washed 2 times with wash buffer, and cells are incubated in dye loading buffer at 37° C., 5% CO2 for ˜1 hour. Following dye loading the cell plates are placed in a FLIPR Tetra instrument and while monitoring dye fluorescence (excitation […]), 10 uL of test substance at increasing concentrations is added, and fluorescence values are recorded for 4 min. Next, 10 uL of acetylcholine is added (final concentration calculated so as to achieve 20% of the maximum acetycholine response), and the fluorescence reading is continued for 3.5 min. In some cases, a third addition of acetylcholine (final concentration calculated to achieve 70% of the maximal acetylcholine response) is performed. The resulting dose response curves are fit to a 4 parameter logistic equation and the final result is determined as the inflection point (IP) of the curve
CHO-K1 cells stably transfected with human M4 receptor and chimeric G-protein Gαqi5 are thawed from liquid N2 storage, resuspended in growth medium, plated in black, clear bottom 384 well plates, and incubated 16-20 hours at 37° C., 5% CO2.
On the day of assay, growth medium is removed, the cells are washed 2 times with wash buffer, and cells are incuabted in dye loading buffer at 37° C., 5% CO2 for ˜1 h. Following dye loading the cell plates are placed in a FLIPR Tetra instrument and while monitoring dye fluorescence ([…]), 10 uL of test substance at increasing concentrations is added, and fluorescence values are recorded for 4 min. Next, 10 uL of acetylcholine is added (final concentration calculated so as to achieve 20% of the maximum acetycholine response), and the fluorescence reading is continued for 3.5 min. In some cases, a third addition of acetylcholine (final concentration calculated to achieve 70% of the maximal acetylcholine response) is performed.

EC50	SMILES
72 nM	Cc1cn2ccc(-c3nc(C#N)ccc3-c3cnc(CC(C)(C)C(F)(F)F)o3)cc2n1 [Example 33, 6-(2-methylimidazol-[1,2-a]pyridin-7-yl)-5-(2-(3,3,3-trifluoro-2,2-dimethylpropyl)-oxazol-5-yl)picolino-nitrile]
136 nM	CC(C)(Cc1ncc(-c2ccc(C(F)F)nc2-c2ccc3cccnc3c2)o1)C(F)(F)F [Example 24, 5-(6-(difluoro-methyl)-2-(quinolin-7-yl)pyridin-3-yl)-2-(3,3,3-trifluoro-2,2-dimethylpropyl)-oxazole]
65 nM	N#Cc1ccc(-c2cnc(CC3(F)CCC3)o2)c(-c2ccc3cccnc3c2)n1 [Example 73, 5-(2-((1-fluorocyclobutyl)methyl)oxazol-5-yl)-6-(quinolin-7-yl)picolinonitrile]
96 nM	Cc1cn2ccc(-c3nc(C#N)ccc3-c3cnc(CCC(F)(F)F)o3)cc2n1 [Example 107, 6-(2-methylimidazo[1,2-a]pyridin-7-yl)-5-(2-(3,3,3-trifluoropropyl)oxazol-5-yl)picolinonitrile]
76 nM	CN1Cc2ccc(-c3nc(C#N)ccc3-c3cnc(CC(C)(C)C(F)(F)F)o3)cc2C1=O [Example 22, 6-(2-methyl-3-oxoisoindolin-5-yl)-5-(2-(3,3,3-trifluoro-2,2-dimethylpropyl)-oxazol-5-yl)picolino-nitrile]
54 nM	N#Cc1ccc(-c2cnc(CC(F)C3CC3)o2)c(-c2ccc3cccnc3c2)n1 (single isomer, unassigned) [Example 71, 5-(2-(2-cyclopropyl-2-fluoroethyl)oxazol-5-yl)-6-(quinolin-7-yl)picolinonitrile (single compound)]
13 nM	COc1cc2ccc(-c3nc(C)ccc3-c3cnc(CC4CCCC4)o3)cc2nn1 [Example 2, 2-(cyclopentyl-methyl)-5-(2-(3-methoxycinnolin-7-yl)-6-methyl-pyridin-3-yl)-oxazole]
86 nM	CC(C)(C)Cc1ncc(-c2ccc(C(F)F)nc2-c2ccn3cnnc3c2)o1 [Example 30, 5-(2-([1,2,4]triazolo-[4,3-a]pyridin-7-yl)-6-(difluoromethyl)-pyridin-3-yl)-2-neo-pentyloxazole]
198 nM	Cc1nc2cc(-c3ncc(F)cc3-c3cnc(CCC(C)(C)F)o3)ccc2n1C [Example 105, 5-(2-(1,2-dimethyl-1H-benzo[d]imidazol-5-yl)-5-fluoropyridin-3-yl)-2-(3-fluoro-3-methylbutyl)oxazole]
15 nM	N#Cc1ccc(-c2cnc(CC3(F)CCCC3)o2)c(-c2ccn3ccnc3c2)n1 [Example 76, 5-(2-((1-fluorocyclopentyl)methyl)oxazol-5-yl)-6-(imidazo [1,2-a]pyridin-7-yl) picolinonitrile]
141 nM	CC(C)(F)Cc1ncc(-c2ccc(C#N)nc2-c2ccc3cccnc3c2)o1 [Example 80, 5-(2-(2-fluoro-2-methylpropyl)oxazol-5-yl)-6-(quinolin-7-yl) picolinonitrile]
80 nM	CN1Cc2ccc(-c3nc(C(F)F)ccc3-c3cnc(CC(C)(C)C)o3)cc2C1=O [Example 15, 6-(6-(difluoro-methyl)-3-(2-neopentyloxazol-5-yl)pyridin-2-yl)-2-methylisoindolin-1-one]
128 nM	Cn1cnc2cc(-c3ncccc3-c3cnc(CC(C)(C)C(F)(F)F)o3)ccc21 [Example 115, 5-(2-(1-methyl-1H-benzo[d]imidazol-5-yl)pyridin-3-yl)-2-(3,3,3-trifluoro-2,2-dimethylpropyl) oxazole]
61 nM	CC(C)Cc1ncc(-c2ccc(C#N)nc2-c2ccc3cccnc3c2)o1 [Example 61, 5-(2-isobutyloxazol-5-yl)-6-(quinolin-7-yl)picolinonitrile]
104 nM	N#Cc1ccc(-c2cnc(CC3CC3)o2)c(-c2ccc3cccnc3c2)n1 [Example 62, 5-(2-(cyclopropylmethyl)oxazol-5-yl)-6-(quinolin-7-yl)picolinonitrile]
170 nM	CC(=O)OC1CCc2cc(-c3cnc(CC4(C)CCCC4)o3)c(-c3ccc4ccc(F)nc4c3)nc21 (centres unmarked) [Example 5, 2-(2-fluoroquinolin-7-yl)-3-(2-((1-methylcyclopentyl)-methyl)oxazol-5-yl)-6,7-dihydro-5H-cyclopenta[b]pyridin-7-yl acetate]
30 nM	CN1Cc2ccc(-c3nc4c(cc3-c3cnc(CC5(C)CCCC5)o3)CCC4)cc2C1=O [Example 4, 2-methyl-6-(3-(2-((1-methylcyclopentyl)methyl)oxazol-5-yl)-6,7-dihydro-5H-cyclopenta[b]pyridin-2-yl)isoindolin-1-one]
34 nM	CC1(Cc2ncc(-c3ccc(C#N)nc3-c3ccc4cccnc4c3)o2)CCCC1 [Example 7, 5-(2-((1-methyl-cyclopentyl)methyl)-oxazol-5-yl)-6-(quinolin-7-yl)-picolinonitrile]
93 nM	CC(C)(C)Cc1ncc(-c2ccc(C#N)nc2-c2cnc3c(c2)C(=O)N(CC2CC2)C3)o1 [Example 39, 6-(6-(cyclopropyl-methyl)-5-oxo-6,7-dihydro-5H-pyrrolo[3,4-b]-pyridin-3-yl)-5-(2-neopentyloxazol-5-yl)picolinonitrile]
7 nM	Cc1ccc(-c2cnc(CC3CCCC3)o2)c(-c2ccc3cccnc3c2)n1 [Example 1, 2-(cyclopentylmethyl)-5-(6-methyl-2-(quinolin-7-yl)pyridin-3-yl)oxazole]
209 nM	CN1C(=O)c2cc(-c3nc4c(cc3-c3cnc(CC5(C)CCCC5)o3)CCC4)cnc2C1=O [Example 10, 6-methyl-3-(3-(2-((1-methylcyclo-pentyl)methyl)oxazol-5-yl)-6,7-dihydro-5H-cyclopenta[b]-pyridin-2-yl)-5H-pyrrolo[3,4-b]-pyridine-5,7(6H)-dione]
30 nM	N#Cc1ccc(-c2cnc(CC3CCC3)o2)c(-c2ccc3cccnc3c2)n1 [Example 29, 5-(2-(cyclobutyl-methyl)oxazol-5-yl)-6-(quinolin-7-yl)-picolinonitrile]
65 nM	CC1(Cc2ncc(-c3cc4c(nc3-c3ccc5ccc(F)nc5c3)C(O)CC4)o2)CCCC1 (centres unmarked) [Example 42, 2-(2-fluoroquinolin-7-yl)-3-(2-((1-methylcyclopentyl)methyl)oxazol-5-yl)-6,7-dihydro-5H-cyclopenta[b]pyridin-7-ol]
75 nM	CC(C)(C)Cc1ncc(-c2ccc3cncn3c2-c2ccn3ccnc3c2)o1 [Example 36, 5-(5-(imidazo[1,2-a]-pyridin-7-yl)imidazo-[1,5-a]pyridin-6-yl)-2-neopentyloxazole]
118 nM	Cc1nc2cc(-c3nc(C#N)ccc3-c3cnc(CCC(F)(F)F)o3)ccc2n1C [Example 113, 6-(1,2-dimethyl-1H-benzo[d]imidazol-5-yl)-5-(2-(3,3,3-trifluoropropyl)oxazol-5-yl)picolinonitrile]
41 nM	N#Cc1ccc(-c2cnc(CC(F)C3CC3)o2)c(-c2ccc3cccnc3c2)n1 (centres unmarked) [Example 69, 5-(2-(2-cyclopropyl-2-fluoroethyl)oxazol-5-yl)-6-(quinolin-7-yl)picolinonitrile]
45 nM	Cn1cnc2cc(-c3nc(C(F)F)ccc3-c3cnc(CC4CCCC4)o3)cnc21 [Example 49, 2-(cyclopentylmethyl)-5-(6-(difluoromethyl)-2-(3-methyl-3H-imidazo[4,5-b]pyridin-6-yl)pyridin-3-yl) oxazole]
42 nM	N#Cc1ccc(-c2cnc(CC3CCCC3)o2)c(-c2cnc3c(c2)C(=O)N(CC2CC2)C3)n1 [Example 51, 5-(2-(cyclopentylmethyl)oxazol-5-yl)-6-(6-(cyclopropylmethyl)-5-oxo-6,7-dihydro-5H-pyrrolo[3,4-b]pyridin-3-yl) picolinonitrile]
60 nM	N#Cc1ccc(-c2cnc(CC(F)C3CC3)o2)c(-c2ccc3cccnc3c2)n1 (single isomer, unassigned) [Example 70, 5-(2-(2-cyclopropyl-2-fluoroethyl)oxazol-5-yl)-6-(quinolin-7-yl)picolinonitrile (single compound)]
